Patent US8841321B2, “Quinoline derivatives as antibacterial agents” (Janssen Pharmaceutica NV, priority 2005, dated 2014)
In brackets after ≈: the same amount, converted by molar mass.

Legend:
Test in all cases: Microtitre plate assay, IC90 determination
Format in all cases: cell-based
[1] = test system: SPN 6305 (Streptococcus pneumoniae (ATCC6305)); conditions: for IC90 (μg/ml) SPN 6305: Streptococcus pneumoniae (ATCC6305); for IC90: Streptococcus pneumoniae, ATCC6305, Streptococcus pneumoniae (ATCC6305), read-out: IC90 (μg/ml) SPN 6305
How it was run: (§1)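 Growth-inhibition endpoint: resazurin added 3 h after inoculation, plates incubated overnight, fluorescence at 530/590 nm after 24 h at 37 °C. Inocula of roughly 10–60 CFU per well in Mueller-Hinton medium; compounds titrated five-fold. IC90 reported as μg/ml.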

[2] = test system: STA 29213 (Staphylococcus aureus (ATCC29213)); conditions: for IC90 (μg/ml) STA 29213: Staphylococcus aureus (ATCC29213)
How it was run: as §1

[3] = test system: EFA 29212 (Enterococcus faecalis (ATCC29212)); conditions: for IC90 (μg/ml) EFA 29212: Enterococcus faecalis (ATCC29212); for IC90: Enterococcus faecalis, ATCC29212, Enterococcus faecalis (ATCC29212), read-out: IC90 (μg/ml) EFA 29212
[4] = test system: PAE 27853 (Pseudomonas aeruginosa (ATCC27853)); conditions: for IC90 (μg/ml) PAE 27853: Pseudomonas aeruginosa (ATCC27853); for IC90: Pseudomonas aeruginosa, ATCC27853, Pseudomonas aeruginosa (ATCC27853), read-out: IC90 (μg/ml) PAE 27853
[5] = test system: SPY 8668 (Streptococcus pyogens (ATCC8668)); conditions: for IC90 (μg/ml) SPY 8668: Streptococcus pyogens (ATCC8668); for IC90: Streptococcus, ATCC8668, Streptococcus pyogens (ATCC8668), read-out: IC90 (μg/ml) SPY 8668
[6] = test system: STA RMETH (methicilline resistant Staphylococcus aureus (MRSA), a clinical isolate from the University of Antwerp); conditions: for IC90: Staphylococcus aureus, MRSA, read-out: IC90 (μg/ml) STA RMETH

Compound | IC90 (μg/ml) SPN 6305 [1] [µg/mL] | IC90 (μg/ml) STA 29213 [2] [µg/mL] | IC90 (μg/ml) EFA 29212 [3] [µg/mL] | IC90 (μg/ml) PAE 27853 [4] [µg/mL] | IC90 (μg/ml) SPY 8668 [5] [µg/mL] | further results
CNCCCCC(O)(c1ccc2ccccc2c1)C(c1ccccc1)c1cc2cc(Br)ccc2nc1OC (racemic) [Compound 74] | 0.9 (≈ 1.58 µM) | 11.36 (≈ 19.9 µM) | 9.03 (≈ 15.9 µM) | 10.13 (≈ 17.8 µM) | 9.03 (≈ 15.9 µM) | –
COc1nc2ccc(Br)cc2cc1C(c1ccccc1)C(O)(CCCCN(C)Cc1ccccc1)c1ccc2ccccc2c1 (racemic) [Compound 76] | 2.34 (≈ 3.55 µM) | – | – | – | 10.46 (≈ 15.9 µM) | –
COc1nc2c(C)c(Br)ccc2cc1C(c1ccccc1)C(O)(CCCCN(C)C)c1ccc2ccccc2c1 (racemic) [Compound 81] | 4.75 (≈ 7.95 µM) | 9.47 (≈ 15.8 µM) | 1.89 (≈ 3.16 µM) | 9.47 (≈ 15.8 µM) | 1.89 (≈ 3.16 µM) | –
COc1nc2ccc(Br)cc2cc1C(c1ccccc1)C(O)(CCCCN1CCC(C)CC1)c1ccc2ccccc2c1 (racemic) [Compound 102] | 1.8 (≈ 2.82 µM) | 10.11 (≈ 15.9 µM) | 10.11 (≈ 15.9 µM) | 2.02 (≈ 3.17 µM) | 2.02 (≈ 3.17 µM) | –
COc1nc2ccc(Br)cc2cc1C(c1ccccc1)C(O)(CCCCN(C)C(C)C)c1ccccc1 (single isomer, unassigned) [Compound 89] | 2.24 (≈ 3.99 µM) | 11.2 (≈ 19.9 µM) | 11.2 (≈ 19.9 µM) | 11.2 (≈ 19.9 µM) | 8.9 (≈ 15.8 µM) | –
COc1nc2ccc(Br)cc2cc1C(c1ccccc1)C(O)(CCCCN1CCCCC1)CCC(C)C (single isomer, unassigned) [Compound 124] | 2.26 (≈ 3.98 µM) | 1.79 (≈ 3.15 µM) | 9 (≈ 15.9 µM) | 3.58 (≈ 6.31 µM) | 9 (≈ 15.9 µM) | –
COc1nc2ccc(Br)cc2cc1C(c1ccccc1)C(O)(CCCCN1CCCCC1)CCc1ccccc1 (single isomer, unassigned) [Compound 134] | 2.13 (≈ 3.54 µM) | 4.26 (≈ 7.08 µM) | – | – | – | IC90 (μg/ml) STA RMETH [6]: 12 µg/mL (≈ 19.9 µM)
COc1nc2ccc(Br)cc2cc1C(c1ccccc1)C(O)(CCCCN1CCNCC1)CCc1ccccc1 (single isomer, unassigned) [Compound 135] | 2.4 (≈ 3.98 µM) | 1.91 (≈ 3.17 µM) | – | – | – | IC90 (μg/ml) STA RMETH [6]: 12.02 µg/mL (≈ 19.9 µM)
COc1nc2ccc(Br)cc2cc1C(c1ccccc1)C(O)(CCCCN1CCNCC1)CCc1ccccc1 (single isomer, unassigned) [Compound 136] | 2.4 (≈ 3.98 µM) | 1.91 (≈ 3.17 µM) | – | – | – | IC90 (μg/ml) STA RMETH [6]: 5.37 µg/mL (≈ 8.91 µM)
COc1nc2ccc(Br)cc2cc1C(c1ccccc1)C(O)(CCCCN1CCC(N(C)C)CC1)CCc1ccccc1 (single isomer, unassigned) [Compound 139] | 5.12 (≈ 7.94 µM) | 4.56 (≈ 7.07 µM) | – | – | – | IC90 (μg/ml) STA RMETH [6]: 12.86 µg/mL (≈ 19.9 µM)
COc1nc2ccc(Br)cc2cc1C(c1ccccc1)C(O)(CCCCN1CCC(N(C)C)CC1)CCc1ccccc1 (single isomer, unassigned) [Compound 140] | 4.56 (≈ 7.07 µM) | 4.56 (≈ 7.07 µM) | – | – | – | IC90 (μg/ml) STA RMETH [6]: 2.57 µg/mL (≈ 3.99 µM)
COc1nc2ccc(Br)cc2cc1C(c1ccccc1)C(O)(CCCCN1CCN(C)CC1)CCc1cccc2ccccc12 (single isomer, unassigned) [Compound 142] | 2.37 (≈ 3.55 µM) | 2.65 (≈ 3.97 µM) | – | – | – | IC90 (μg/ml) STA RMETH [6]: 2.37 µg/mL (≈ 3.55 µM)
COc1nc2ccc(Br)cc2cc1C(c1ccccc1)C(O)(CCCCN(C)C)CCCc1ccccc1 (single isomer, unassigned) [Compound 144] | 2.29 (≈ 3.98 µM) | 9.12 (≈ 15.8 µM) | 1.82 (≈ 3.16 µM) | 1.82 (≈ 3.16 µM) | 1.82 (≈ 3.16 µM) | –
COc1nc2ccc(Br)cc2cc1C(c1ccccc1)C(O)(CCCCN(C)C)CCCc1ccccc1 (single isomer, unassigned) [Compound 145] | 2.29 (≈ 3.98 µM) | 5.76 (≈ 10 µM) | 9.12 (≈ 15.8 µM) | 9.12 (≈ 15.8 µM) | 5.13 (≈ 8.91 µM) | –
COc1nc2ccc(C)cc2cc1C(c1ccccc1)C(O)(CCCCCN(C)C)c1ccccc1 (single isomer, unassigned) [Compound 152] | 1.5 (≈ 3.11 µM) | 7.7 (≈ 16 µM) | 38.3 (≈ 79.4 µM) | 38.3 (≈ 79.4 µM) | 38.3 (≈ 79.4 µM) | –
COc1nc2ccc(Br)cc2cc1C(c1ccccc1)C(O)(CCCCCN(C)C)c1ccccc1 (single isomer, unassigned) [Compound 154] | 1.75 (≈ 3.2 µM) | 1.75 (≈ 3.2 µM) | – | 8.68 (≈ 15.9 µM) | 8.68 (≈ 15.9 µM) | –
COc1ccc(C(c2cc3cc(Br)ccc3nc2OC)C(O)(CCCCN(C)C)c2ccc3ccccc3c2)cc1 (single isomer, unassigned) [Compound 158] | 1.22 (≈ 1.99 µM) | 0.4 (≈ 0.652 µM) | 1.94 (≈ 3.16 µM) | 0.87 (≈ 1.42 µM) | 0.87 (≈ 1.42 µM) | –
COc1nc2ccccc2cc1C(c1cccc(Br)c1)C(O)(CCCCN(C)C)c1ccc2ccccc2c1 (single isomer, unassigned) [Compound 159] | 0.41 (≈ 0.703 µM) | 1.85 (≈ 3.17 µM) | 1.85 (≈ 3.17 µM) | 1.85 (≈ 3.17 µM) | 1.47 (≈ 2.52 µM) | –
COc1ccc(C(O)(CCCCN2CCCCC2)C(c2ccc(C)cc2)c2cc3cc(Br)ccc3nc2OC)cc1 (single isomer, unassigned) [Compound 168] | 2.46 (≈ 3.98 µM) | 2.19 (≈ 3.55 µM) | 1.95 (≈ 3.16 µM) | 1.95 (≈ 3.16 µM) | 1.95 (≈ 3.16 µM) | –
COc1nc2ccc(Br)cc2cc1C(c1ccc(Cl)cc1)C(O)(CCCCN1CCCCC1)c1ccccc1 (single isomer, unassigned) [Compound 170] | 9.64 (≈ 15.9 µM) | 21.57 (≈ 35.5 µM) | 9.64 (≈ 15.9 µM) | 9.64 (≈ 15.9 µM) | 9.64 (≈ 15.9 µM) | –
COc1nc2ccc(Br)cc2cc1C(c1ccc(Cl)c(Cl)c1)C(O)(CCCCN1CCCCC1)c1ccccc1 (single isomer, unassigned) [Compound 173] | 0.91 (≈ 1.42 µM) | 2.03 (≈ 3.16 µM) | 2.03 (≈ 3.16 µM) | 2.03 (≈ 3.16 µM) | 0.91 (≈ 1.42 µM) | –
COc1nc2ccccc2cc1C(c1ccccc1)C(O)(CCCCN(C)C)c1ccc2ccccc2c1 (centres unmarked) [Compound 37] | 1.8 (≈ 3.57 µM) | 2.0 (≈ 3.96 µM) | – | – | – | IC90 [6]: 10.1 µg/mL (≈ 20 µM)
COc1nc2ccc(-c3ccco3)cc2cc1C(c1ccccc1)C(O)(CCCCN(C)C)c1ccc2ccccc2c1 (centres unmarked) [Compound 39] | 3.6 (≈ 6.31 µM) | 2.0 (≈ 3.5 µM) | – | – | – | IC90 [6]: 4.5 µg/mL (≈ 7.88 µM)
COc1nc2ccccc2cc1C(c1ccc(-c2ccccc2)cc1)C(O)(CCCCN(C)C)c1ccc2ccccc2c1 (centres unmarked) [Compound 56] | – | 1.84 (≈ 3.17 µM) | – | – | – | IC90 [1]: 2.31 µg/mL (≈ 3.98 µM); IC90 (μg/ml) STA RMETH [6]: 5.81 µg/mL (≈ 10 µM)
COc1nc2ccccc2cc1C(c1ccc(-c2ccccc2)cc1)C(O)(CCCCN(C)C)c1ccc2ccccc2c1 (centres unmarked) [Compound 57] | 2.31 (≈ 3.98 µM) | 4.11 (≈ 7.08 µM) | – | – | – | IC90 (μg/ml) STA RMETH [6]: 2.59 µg/mL (≈ 4.46 µM)
COc1nc2ccc(Br)cc2cc1C(c1ccccc1)C(O)(CCCCCN(C)C)c1ccc2ccccc2c1 (centres unmarked) [Compound 59] | 0.84 (≈ 1.41 µM) | 0.8 (≈ 1.34 µM) | – | – | – | IC90 [3]: 1.89 µg/mL (≈ 3.16 µM); IC90 [4]: 1.89 µg/mL (≈ 3.16 µM); IC90 [5]: 2.12 µg/mL (≈ 3.55 µM)
COc1nc2ccccc2cc1C(c1ccc(Br)cc1)C(O)(CCCCN(C)C)c1ccc2ccccc2c1 (centres unmarked) [Compound 64] | 1.85 (≈ 3.17 µM) | 1.85 (≈ 3.17 µM) | – | – | – | IC90 [3]: 1.85 µg/mL (≈ 3.17 µM); IC90 [4]: 0.46 µg/mL (≈ 0.788 µM); IC90 [5]: 1.85 µg/mL (≈ 3.17 µM)
CNCCCC(O)(c1ccc(F)cc1)C(c1ccccc1)c1cc2cc(Br)ccc2nc1OC (centres unmarked) [Compound 69] | – | 1.7 (≈ 3.25 µM) | – | – | 6.59 (≈ 12.6 µM) | IC90 [1]: 1.65 µg/mL (≈ 3.15 µM); IC90 [3]: 9.3 µg/mL (≈ 17.8 µM); IC90 [4]: 7.39 µg/mL (≈ 14.1 µM)
CCN(CC)CCCCC(O)(CCc1cccc2ccccc12)C(c1ccccc1)c1cc2cc(Br)ccc2nc1OC (centres unmarked) [Compound 73] | – | – | – | – | – | IC90 [1]: 2.55 µg/mL (≈ 3.99 µM); IC90 ([2]; Staphylococcus aureus, ATCC29213, Staphylococcus aureus (ATCC29213), read-out: IC90 (μg/ml) STA 29213): 2.02 µg/mL (≈ 3.16 µM); IC90 [6]: 2.55 µg/mL (≈ 3.99 µM)
